In patent US20220401369A1, “SOLID DISPERSION OF PAN-RAF KINASE INHIBITOR” (DAY ONE BIOPHARMACEUTICALS, INC., priority 2019, published 2022):
≈ marks a conversion by molar mass, not a printed value. Where two headings read alike, the source gives them in different places.

How the values were obtained:
[1] = Solubility (24 h, 37° C.) in JP1 and JP2; type: physicochemical; conditions: thermodynamic from solid
[2] = Polymer screening by DSC (miscibility of Compound 1 in polymer); type: physicochemical
Procedure: Differential Scanning calorimetry (DSC) and Oil bath methods were applied to study solid dispersions comprising Compound 1. DSC is applied for the prediction of miscibility and solubility of Compound 1 in polymer.
Pure crystalline drug Compound 1 was physically mixed with each pure polymer. The equilibrium solution temperature (Tend) and Enthalpy (H) of Compound 1 in each 20% Compound 1 loaded physical mixture (PM) were measured for polymer screening by DSC (Discovery™ DSC, TA Instruments) with following steps;
−20° C. to over MP (melting point) of Compound 1 (206° C.) @1° C./min
From the endothermic peak of DSC, H and Tend were analyzed, and the change ratio A E between pure Compound 1 and PM was defined as miscibility parameters (Eq. 1). […] Therefore, the lower A E means the higher miscibility.

[3] = 20% Compound 1 loaded physical mixture with polymer, pure Compound 1 as reference

solubility at 24 h ([1]; aqueous buffer, JP2 (pH 6.8), Table 2, read-out: Solubility JP2): 1.1 µg/mL (≈ 2.17 µM)
solubility at 24 h ([1]; simulated gastric fluid, JP1 (pH 1.2), Table 2, read-out: Solubility JP1): 3.4 µg/mL (≈ 6.72 µM)
DSC H (enthalpy) [2, 3]: 102.52 J/g
DSC Tend (equilibrium solution temperature) [2, 3]: 209.958 °C
DSC ΔE (miscibility parameter) ([2]; 20% Compound 1 loaded physical mixture, lower ΔE means higher miscibility): 2.00
Structure (SMILES): C[C@@H](NC(=O)c1ncnc(N)c1Cl)c1ncc(C(=O)Nc2cc(C(F)(F)F)c(Cl)cn2)s1 [Compound 1, (R)-2-(1-(6-amino-5-chloropyrimidine-4-carboxamido)ethyl)-N-(5-chloro-4-(trifluoromethyl)pyridin-2-yl)thiazole-5-carboxamide]
